Results reported in publication PMC10403574, “Discovery of a pyrrole-pyridinimidazole derivative as novel SIRT6 inhibitor for sensitizing pancreatic cancer to gemcitabine” (Cell Death & Disease, 2023).

Experiments:
SIRT3 = SIRT3 (Homo sapiens, UniProt Q9NTG7); test: Deacetylation activity selectivity, SIRT3; format: biochemical
Procedure: (§1) Fluor-De-Lys (FDL) assays were used for the examination of the deacetylation activities of sirtuins as described previously. For the detection of SIRT6 activity, the 50-μL reaction mixture contained 5 μM SIRT6, 2.5 mM NAD^+ (β-Nicotinamide adenine dinucleotide hydrate, Sigma, N1636), 75 μM RHKK-Ac-AMC (GL Biochem, Shanghai), compounds/DMSO, and assay buffer. The reactions were incubated at 37 °C for 2 h, added 50 μL stop solution (40 mM nicotinamide, 6 mg/mL trypsin) at 25 °C for 30 min. Fluorescence intensity was measured at an excitation wavelength of 360 nm and an emission wavelength of 460 nm. IC50 values were calculated in GraphPad Prism version 8.00.
(§2) Based on the above results, 8a was further investigated in this study. […] To further evaluate the selectivity of 8a for SIRT6, we examined the effect of 8a on the deacetylation activity of other HDAC family members, including HDAC1-HDAC11, SIRT1-SIRT3 and SIRT5. […] Furthermore, to confirm binding of 8a to SIRT6 in cells, we carried out the cellular thermal shift assay (CETSA). The CETSA approach builds on the thermal shift assay concept where ligand binding to its target protein enhances the target protein stability. We observed that the thermal stability of SIRT6 increased after 8a treatment (Figs. 2c, d).

HDAC1 = HDAC1 (Homo sapiens, UniProt Q13547); test: Deacetylation activity selectivity, HDAC1; format: biochemical
Sequence of HDAC1 (Q13547 whole entry, species assumed): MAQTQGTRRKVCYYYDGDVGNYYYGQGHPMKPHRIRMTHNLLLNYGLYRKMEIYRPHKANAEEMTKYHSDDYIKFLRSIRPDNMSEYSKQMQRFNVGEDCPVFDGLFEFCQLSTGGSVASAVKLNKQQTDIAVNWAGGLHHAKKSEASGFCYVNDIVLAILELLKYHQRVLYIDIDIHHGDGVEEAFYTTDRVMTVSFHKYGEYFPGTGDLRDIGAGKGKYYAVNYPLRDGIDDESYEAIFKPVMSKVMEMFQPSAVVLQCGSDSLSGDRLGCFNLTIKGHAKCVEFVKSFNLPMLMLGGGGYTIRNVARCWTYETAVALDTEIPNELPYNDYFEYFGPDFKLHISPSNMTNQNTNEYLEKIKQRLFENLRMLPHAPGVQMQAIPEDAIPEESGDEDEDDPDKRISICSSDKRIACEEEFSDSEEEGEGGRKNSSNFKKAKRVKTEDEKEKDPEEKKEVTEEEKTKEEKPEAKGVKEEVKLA
From the text: as §2

HDAC3 = HDAC3 (Homo sapiens, UniProt O15379); test: Deacetylation activity selectivity, HDAC3; format: biochemical
Sequence of HDAC3 (O15379 whole entry, species assumed): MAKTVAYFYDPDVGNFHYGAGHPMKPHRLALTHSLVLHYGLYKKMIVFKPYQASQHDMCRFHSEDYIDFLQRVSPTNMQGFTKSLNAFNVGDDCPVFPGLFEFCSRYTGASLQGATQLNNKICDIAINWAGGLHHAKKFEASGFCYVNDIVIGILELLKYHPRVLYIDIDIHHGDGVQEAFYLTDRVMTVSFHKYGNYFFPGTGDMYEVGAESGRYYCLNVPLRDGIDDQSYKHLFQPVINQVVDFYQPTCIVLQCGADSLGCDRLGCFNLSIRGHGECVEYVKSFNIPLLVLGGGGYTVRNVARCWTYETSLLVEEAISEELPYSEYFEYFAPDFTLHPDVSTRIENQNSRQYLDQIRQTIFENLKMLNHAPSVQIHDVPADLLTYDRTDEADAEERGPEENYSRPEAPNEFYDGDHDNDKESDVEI
Sequence of HDAC3 (Q9Y618 395-489 partner limits assumed, species assumed): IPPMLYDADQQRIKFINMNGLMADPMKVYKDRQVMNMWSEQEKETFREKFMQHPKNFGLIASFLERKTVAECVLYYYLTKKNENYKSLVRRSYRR
From the text: as §2

BXPC-3 xenografts = test: BXPC-3 tumor xenograft in nude mice; format: in vivo, BALB/c nude mice
Procedure: Female BALB/c nude mice (14 ± 2 g, 4 weeks old) were purchase. About 2 × 10^6 of BXPC-3 cells were inoculated into nude mouse flanks. When the tumor volume reached approximately 100 mm^3, mice were randomly divided into four groups with six mice per group before treatment and then treated with vehicle, 8a (20 mg/kg), gemcitabine (10 mg/kg) and their combination every 2 days. Tumor volumes and body weight were measured every 3 days, and use the formula to calculate the tumor volume: V = (L × W × W)/2 (V, tumor volume; L, length; and W, width). Mice were sacrificed and tumor tissues were removed. Tumor tissues were fixed with paraformaldehyde (4%) and embedded with paraffin.
To further confirm whether 8a can enhance the antitumor effects of gemcitabine in vivo, the BXPC-3 PDAC xenografts were used. The mice with tumors received intraperitoneal injection of compound 8a (20 mg/kg), gemcitabine (10 mg/kg), or their combination once every 2 days for 4 weeks. Tumor volumes and body weight of mice were monitored every 3 days.

SIRT6 = SIRT6 (Homo sapiens, UniProt Q8N6T7); test: Fluor-De-Lys (FDL) SIRT6 deacetylation assay; format: biochemical; set-up: The human full-length SIRT6 gene was inserted into the prokaryotic expression vector (pET-28a (+)); inferred from the pET-28a(+) vector, Ni-NTA purification and Ni-NTA biosensor loading); made in house; host or cells: Escherichia coli BL21 (DE3)
Sequence of SIRT6 (Q8N6T7 whole entry): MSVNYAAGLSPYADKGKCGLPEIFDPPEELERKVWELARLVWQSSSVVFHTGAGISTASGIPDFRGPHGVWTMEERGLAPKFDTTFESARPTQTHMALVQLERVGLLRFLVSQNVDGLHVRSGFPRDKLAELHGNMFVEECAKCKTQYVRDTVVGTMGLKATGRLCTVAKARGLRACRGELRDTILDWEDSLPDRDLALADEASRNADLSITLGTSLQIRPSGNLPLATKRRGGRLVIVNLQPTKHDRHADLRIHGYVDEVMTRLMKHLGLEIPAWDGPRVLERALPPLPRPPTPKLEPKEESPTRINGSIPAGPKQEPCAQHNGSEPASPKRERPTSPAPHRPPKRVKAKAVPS
Procedure: The human full-length SIRT6 gene was inserted into the prokaryotic expression vector (pET-28a (+)). The verified recombinant plasmid was transformed into Escherichia coli BL21 (DE3) expression strain and cultured overnight at 37 °C on LB plates supplemented with 50 μg/mL kanamycin. Single colonies were inoculated in fluid kanamycin-containing LB mediums. It was shaken at 160 rpm for 16 h at 37 °C and transferred to kanamycin-containing LB medium at a ratio of 1:100. It was shaken at 160 rpm at 37 °C until the OD600 reached 0.6. The Isopropyl-β-d-thiogalactopyranoside was added to make the final concentration of solution 0.5 mmol/L, cultured for 15 °C and 160 rpm for 24 h.
Bacterial liquid was harvested at 12,000 rpm at 4 °C for 20 min, and then re-suspended in Lysis buffer (20 mmol/L Hepes pH 7.5, 20 mmol/L imidazole, 5% Glycerol, 500 mmol/L NaCl). Cell pellets were disrupted by high-pressure crusher (JNBIO, Guangzhou China) and centrifuged (4 °C, 12000 rpm, for 20 min). Supernatant was collected and purified by FPLC with a 1 mL Ni–NTA Sepharose column (GE Healthcare, Stamford, USA). The SIRT6 protein was eluted at containing 50 mM, 100 mM, 150 mM, 200 mM, and 500 mM imidazole in elution buffer. The purified SIRT6 protein was dialyzed in dialysis buffer (50 mM Tris-HCl, 137 mM NaCl, 2.7 mM KCl, 1 mM MgCl2). The purified SIRT6 protein was analyzed by SDS-PAGE.
as §1

Sequence of SIRT3 (Q9NTG7 whole entry, species assumed): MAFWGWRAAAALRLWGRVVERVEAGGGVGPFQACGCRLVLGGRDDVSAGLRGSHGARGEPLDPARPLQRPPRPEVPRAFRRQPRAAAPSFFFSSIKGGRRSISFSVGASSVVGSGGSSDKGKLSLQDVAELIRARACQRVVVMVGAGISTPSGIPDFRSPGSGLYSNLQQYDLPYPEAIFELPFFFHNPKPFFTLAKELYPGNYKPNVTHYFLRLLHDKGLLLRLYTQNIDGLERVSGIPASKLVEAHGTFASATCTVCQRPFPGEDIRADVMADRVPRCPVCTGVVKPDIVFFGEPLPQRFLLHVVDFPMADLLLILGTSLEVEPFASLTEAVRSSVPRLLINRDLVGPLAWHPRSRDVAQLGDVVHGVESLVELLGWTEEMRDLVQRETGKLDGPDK

Br.CN(C)C(SCCCCCCn1cnc2c(-c3cc(Br)c(Br)[nH]3)nccc21)=[N+](C)C.[Cl-] [Compound 8a] showed an IC50 (SIRT3) greater than 200 µM, an IC50 (HDAC1) greater than 200 µM and an IC50 (HDAC3) of 112 ± 2.05 µM. For the same molecule, the tumor inhibition (BXPC-3 xenografts; 8a 20 mg/kg i.p. once every 2 days for 4 weeks, vs control mice) was 27%, the “Ac-H3K9 in tumor tissue” value (BXPC-3 xenografts; western blotting of tumor tissue samples, 8a 20 mg/kg) was “elevated” and the IC50 (SIRT6) was 7.46 ± 0.79 µM. The “Inhibition rate (%)” value (SIRT6; fixed concentration of 25 μM, RHKK-Ac-AMC, NI = no inhibition) was 75.6%.
